Test results taken from ChEMBL document CHEMBL3351324, “Impact of Stereochemistry on Ligand Binding: X-ray Crystallographic Analysis of an Epoxide-Based HIV Protease Inhibitor” (ACS Med Chem Lett, 2014).
Active and inactive are the calls of the source. No cut-off for these calls is given here.

Tests used:
[1] = target: Protease (Human immunodeficiency virus 1) (UniProt Q9YQ12); assay: Time dependent inhibition of HIV1 protease by standard fluorimetric assay
[2] = target: Protease (Human immunodeficiency virus 1) (UniProt Q9YQ12); assay: Covalent inhibition of HIV1 protease assessed as covalent modification of enzyme residues by ESI-MS method
[3] = target: Protease (Human immunodeficiency virus 1, UniProt Q9YQ12); assay: Inhibition of HIV1 protease by standard fluorimetric assay
[4] = target: Protease (Human immunodeficiency virus 1) (UniProt Q9YQ12); assay: Irreversible inhibition of HIV1 protease by standard fluorimetric assay
[5] = target: Protease (Human immunodeficiency virus 1) (UniProt Q9YQ12); assay: Inhibition of HIV1 protease assessed as compound epoxide ring interaction with enzyme active site by X-ray crystallography

CC(C)[C@H](NC(=O)COc1ccccc1)C(=O)N[C@@H](Cc1ccccc1)[C@@H](O)[C@@H]1O[C@H]1Cc1ccccc1 was tested. Which inhibition [1] did it give?
Its inhibition is “inactive”.

And the inhibition [2]?
The inhibition was “inactive”.

And the IC50 [3]?
The IC50 was 670 nM.

And the inhibition [4]?
The inhibition was “inactive”.

What about the inhibition [5] of the same compound?
The inhibition was “Active”.
